What was measured:
[1] = system: cytochrome p450 IA1 (CYPIAI) gene expression; assay: Northern analysis of CYPIAI induction in BEP2D cells; format: cell-based, human; conditions: 10 μM, varying times, vs 0.1% DMSO control
Experimental: (§1) In a second set of experiments, multiplex competitive reverse transcriptase polymerase chain reaction (MC RT-PCR) with competitive templates were prepared by the Celi method to evaluate the cytochrome p450 (CYP) IAI gene in β-napthoflavone-exposed BEP2D cells. The induction of CYPIAI gene expression was evaluated using both MC RT-PCR with Celi competitive templates, and Northern analysis. Competitive templates were prepared for both the CYPIAI and GAPDH genes. The primers used to prepare the competitive template for GAPDH were: […]
RNA from BEP2D cells incubated for varying times with […] (10 μM) was either electrophoresed on a 1% LE formaldehyde denaturing gel for Northern analysis or MC RT-PCR amplified, as described above. For Northern analysis, following transfer of the RNA to GeneScreen, the filters were hybridized with ^32P-labeled CYPIAI cDNA.
FIG. 36A illustrates Northern analysis of RNA obtained from BEP2D cells that were treated with 0.1% DMSO as a control, or, β-napthoflavone in an effort to induce cytochrome p450 IA1 (CYPIAI). FIG. 36B illustrates DNA PCR-amplified from serial dilutions of cDNA from the same cells used in FIG. 36SA. The cDNA was co-amplified in the presence of competitive templates for GAPDH and CYPIAI, according to some embodiments of the instant invention.

[2] = system: cytochrome p450 IA1 (CYPIAI) gene expression; assay: MC RT-PCR with Celi competitive templates, CYPIAI induction in BEP2D cells; format: cell-based, human; conditions: 10 μM, exposed vs control cells, about the same cDNA loaded
Experimental: as §1
The PCR amplification conditions were the same as described for experiments using the competitive templates prepared for GAPDH and GSHPx by the Higuchi method except the annealing temperature was 55 degrees centigrade and the amplification was carried out for 38 cycles.
Because the native and competitive templates separate without prior restriction endonuclease digestion, samples were taken directly from the PCR reaction tube and applied to ethidium bromide stained 3% Nusieve, 1% LE agarose gels. It was then possible to quantify the products by taking a negative photograph of the gel using Polaroid 665 positive/negative instant film, subjecting the negative photograph to densitometry. […]

- gene expression of the CYPIAI gene (Northern analysis) [1]: increase
- band representing the native CYPIAI gene (MC RT-PCR, GAPDH reference) [2]: much more strongly represented
SMILES: O=c1cc(-c2ccccc2)oc2ccc3ccccc3c12 [β-napthoflavone]
